Laboratory results published in patent publication US20210236784A1, “DEVICE FOR ORAL DELIVERY OF ACTIVE AGENTS” (Entrega Inc., priority 2015, published 2021).

Assay: Surgical Bioavailability Assay
Type: in vivo
Conditions: pig; octreotide; porcine surgical model, device/dosage form placed in the intestine (jejunum, ileum); from active agent levels in blood samples; FIG. 23
Experimental: To determine bioavailability, mucoadhesive devices according to aspects of the present disclosure, as well as comparative dosage forms, are tested by a surgical model (Surgical Bioavailability Assay).
Surgical Bioavailability Assay. In the Surgical Bioavailability Assay, a porcine model is used, in which the animals undergo open surgery such that devices and/or dosage forms to be tested can be placed at regions of the intestine of interest, such as the jejunum and ileum. After administration of anesthesia, a ventral midline incision is made to gain access to the animal's abdominal cavity. The jejunum and ileum are exposed, and incisions are made to manually place the devices and/or dosage forms being tested. After placement of the device and/or dosage form is complete, the intestinal incisions are closed, and the midline incision can also be temporarily closed. Also, access can be made for blood collection via the carotid artery or jugular vein. The animal can be kept under anesthesia for up to 4 hours to allow for blood collection, such as at 5 mins, 15 mins, 30 mins, 60 mins, 90 mins, and 2 hours after oral dosage form placement. Blood samples can also be collected prior to the surgical procedure. The percent bioavailability of the active agent provided with the devices and/or dosage forms is determined on the basis of the active agent levels detected in these blood samples. […]

For `C[C@@H](O)[C@@H]1NC(=O)[C@H](CCCCN)NC(=O)[C@@H](Cc2c[nH]c3ccccc23)NC(=O)[C@H](Cc2ccccc2)NC(=O)[C@@H](NC(=O)[C@H](N)Cc2ccccc2)CSSC[C@@H](C(=O)N[C@H](CO)[C@@H](C)O)NC1=O` [octreotide solution, octreotide], the bioavailability was about 1%.
